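1) Cells in 96-well plates. 2) Compound, 48 h, 5 concentrations. 3) Linear interpolation between surrounding doses. 4) Unreached endpoint = highest concentration. Abbreviation: GI50, concentration required for 50% inhibition of growth.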 Active and inactive are the calls of the source. Cut-off read from the data, not from the text of the source: active = GI50 up to about 1.1 µM and inactive = higher.
Assays:
Experiment in all cases: NCI tumour cell line growth inhibition, 48 h
786-0 = test system: 786-0
A549 = test system: A549
CAKI-1 = test system: CAKI-1
CCRF-CEM = test system: CCRF-CEM
HCC 2998 = test system: HCC 2998
HOP-92 = test system: HOP-92
IGROV-1 = test system: IGROV-1
M14 = test system: M14
NCI-H23 = test system: NCI-H23
OVCAR-3 = test system: OVCAR-3
OVCAR-5 = test system: OVCAR-5
SF-268 = test system: SF-268
SNB-19 = test system: SNB-19
TK-10 = test system: TK-10
U-251 = test system: U-251
UACC-257 = test system: UACC-257
UACC-62 = test system: UACC-62
DU-145 = test system: DU-145
MDA-MB-435 = test system: MDA-MB-435

| Structure (SMILES) | GI50 (786-0) | GI50 (A549) | GI50 (CAKI-1) | GI50 (CCRF-CEM) | GI50 (HCC 2998) | GI50 (HOP-92) | GI50 (IGROV-1) | GI50 (M14) | GI50 (NCI-H23) | GI50 (OVCAR-3) | GI50 (OVCAR-5) | GI50 (SF-268) | GI50 (SNB-19) | GI50 (TK-10) | GI50 (U-251) | GI50 (UACC-257) | GI50 (UACC-62) | GI50 (DU-145) | GI50 (MDA-MB-435) |
| --- | --- | --- | --- | --- | --- | --- | --- | --- | --- | --- | --- | --- | --- | --- | --- | --- | --- | --- | --- |
| CC1=NN(C(=O)c2ccc(Cl)cc2)C(=O)/C1=C/c1ccc(O)cc1 | > 100 µM (inactive) | > 100 µM (inactive) | > 100 µM (inactive) | > 100 µM (inactive) | > 100 µM (inactive) | > 100 µM (inactive) | > 100 µM (inactive) | > 100 µM (inactive) | > 100 µM (inactive) | > 100 µM (inactive) | > 100 µM (inactive) | > 100 µM (inactive) | > 100 µM (inactive) | > 100 µM (inactive) | > 100 µM (inactive) | > 100 µM (inactive) | > 100 µM (inactive) |  |  |
| O=C(/C=C/c1ccc2c(c1)OCO2)c1ccc(O)cc1 | 1.63 µM (inactive) | 17.4 µM (inactive) | 15.2 µM (inactive) | 8.07 µM (inactive) | 17.9 µM (inactive) | 14.5 µM (inactive) | 15.1 µM (inactive) | 18.1 µM (inactive) | 15.5 µM (inactive) | 15.5 µM (inactive) | 17.5 µM (inactive) | 45.9 µM (inactive) | 16.8 µM (inactive) | 18.7 µM (inactive) | 13.8 µM (inactive) | 15.3 µM (inactive) | 16.8 µM (inactive) | 16.5 µM (inactive) | 14.8 µM (inactive) |
| COc1cc([C@@H]2c3cc4c(cc3C[C@@H]3COC(=O)C32)OCO4)cc(OC)c1O (some centres undefined) | 0.0299 µM (active) | 0.0668 µM (active) | 0.0183 µM (active) | 0.0228 µM (active) |  | 0.0957 µM (active) | 0.0254 µM (active) | 0.0344 µM (active) | 0.21 µM (active) | 0.0188 µM (active) |  | 0.0429 µM (active) |  | 0.039 µM (active) | 0.0432 µM (active) | 87.7 µM (inactive) | 0.0263 µM (active) | 0.0973 µM (active) | < 0.01 µM (active) |
| O=C1c2ccccc2C(Br)(Br)c2ccccc21 | > 31.6 µM (inactive) | > 31.6 µM (inactive) | > 10 µM (inactive) | > 31.6 µM (inactive) | > 31.6 µM (inactive) | > 100 µM (inactive) | > 31.6 µM (inactive) | > 31.6 µM (inactive) | > 100 µM (inactive) | > 31.6 µM (inactive) | > 31.6 µM (inactive) | 25.5 µM (inactive) | > 31.6 µM (inactive) | > 100 µM (inactive) | > 31.6 µM (inactive) | > 100 µM (inactive) | > 100 µM (inactive) |  |  |
| CC(C)NC(=O)CCN(C(=O)O)S(=O)(=O)c1ccc(NC(=O)c2ccccc2)cc1 | > 79.6 µM (inactive) | > 50.1 µM (inactive) | > 100 µM (inactive) | > 43.9 µM (inactive) | > 100 µM (inactive) | > 100 µM (inactive) | > 100 µM (inactive) | > 100 µM (inactive) | > 100 µM (inactive) | > 100 µM (inactive) | > 100 µM (inactive) | > 54.5 µM (inactive) | > 100 µM (inactive) | > 100 µM (inactive) | 15.6 µM (inactive) | > 51.9 µM (inactive) | > 45.5 µM (inactive) |  |  |
| Cc1ccccc1/N=C/c1ccc(N(CCC#N)S(=O)(=O)c2ccccc2)cc1 | > 100 µM (inactive) | > 100 µM (inactive) | > 100 µM (inactive) | > 100 µM (inactive) | > 100 µM (inactive) | > 100 µM (inactive) | > 100 µM (inactive) | > 100 µM (inactive) | > 100 µM (inactive) | > 100 µM (inactive) | > 100 µM (inactive) | > 100 µM (inactive) | > 100 µM (inactive) | > 100 µM (inactive) | > 100 µM (inactive) | > 100 µM (inactive) | > 100 µM (inactive) |  |  |
| CC(=O)OCC(=O)[C@@]1(O)CC[C@H]2[C@@H]3CCC4=CC(=O)[C@H](C)C[C@]4(C)[C@H]3[C@@H](O)C[C@@]21C | > 100 µM (inactive) | > 100 µM (inactive) | > 100 µM (inactive) | > 100 µM (inactive) | > 100 µM (inactive) | > 100 µM (inactive) | > 100 µM (inactive) | > 100 µM (inactive) | > 100 µM (inactive) | > 100 µM (inactive) | > 100 µM (inactive) | > 100 µM (inactive) | > 100 µM (inactive) | > 100 µM (inactive) | > 100 µM (inactive) | > 100 µM (inactive) | > 100 µM (inactive) |  |  |
| Nc1ccc(Oc2ccc(C3(c4ccc(Oc5ccc(N)cc5)cc4)C4CC5CC(C4)CC3C5)cc2)cc1 | 4.57 µM (inactive) | 6.08 µM (inactive) | 15.8 µM (inactive) | 3.03 µM (inactive) | 0.322 µM (active) | 11.5 µM (inactive) | 12.8 µM (inactive) | 3.2 µM (inactive) | 13.8 µM (inactive) | 0.353 µM (active) | 19.9 µM (inactive) | 20.3 µM (inactive) | 21.4 µM (inactive) | 22.8 µM (inactive) | 0.231 µM (active) | 6.67 µM (inactive) | 17.3 µM (inactive) | 6.64 µM (inactive) | 8.05 µM (inactive) |

— ChEMBL document CHEMBL1201862, “PubChem BioAssay data set” (2004)
